Source: patent US20250162988A1, “CRYSTALS OF VITAMIN D DERIVATIVE OR CRYSTALS OF SOLVATE THEREOF” (TEIJIN PHARMA LIMITED, priority 2022, published 2025)

Tests used:
[1] = tested on: rat oligodendrocyte progenitor cells; assay: Promotive activity of rat oligodendrocyte progenitor cell differentiation (MBP immunostaining); type: cell-based, SD rats; conditions: vitamin D derivative 2 μM, T3 30 nM, cultured for 4 days
Protocol: The promotive activity of oligodendrocyte progenitor cell (OPC) differentiation of the vitamin D derivatives was evaluated by immunostaining of myelin basic protein (MBP).
Subsequently, oligodendrocyte progenitor cell separation medium was added to the flask, and the mixture was similarly shaken for about 22 hours (37° C., 200 rpm), and the supernatant was collected to prepare oligodendrocyte progenitor cells.
After cell seeding, a solution of the test compound or a solution prepared from DMSO with a differentiation medium were added to the cells such that the DMSO concentration in the wells was 0.1%. The cells were cultured for 4 days.

[2] = Evaluation of brain penetration in mice (single oral dose, plasma and brain level by LC/MS/MS); type: in vivo, C57BL/6J mice; conditions: mean ± S.D.
Protocol: The administration solution was administered orally to C57BL/6J mice (8 weeks old, male, n=3) at a single dose (1 mg/kg). Mice were euthanized at 6 points of 0.25, 0.5, 1, 2, 4, and 8 hours after administration, and plasma and brain sampling were performed. After preparing a homogenate from the collected brain using Tissue Lyser II (QIAGEN #85300), acetonitrile was added to the homogenate and the homogenate was centrifuged (TOMY DIGITAL BIOLOGY MX-307, 12000 rpm, 5 minutes) to extract the administered test compound contained in the brain. Similarly, the plasma was subjected to addition of acetonitrile and centrifugal separation to extract the administered test compound contained in the plasma. Each extracted sample was subjected to measurement of the concentration of administered test compound using LC/MS/MS (SHIMADZU UFLC/MS/MS (8050)).
The administration solution was administered orally to C57BL/6J mice (8 weeks old, male, n=3) at a single dose (0.2 mg/kg). Mice were euthanized at 6 points of 0.25, 0.5, 1, 2, 4, and 8 hours after administration, and plasma and brain sampling were performed. After preparing a homogenate from the collected brain using Tissue Lyser II (QIAGEN #85300), acetonitrile was added to the homogenate and the homogenate was centrifuged (TOMY DIGITAL BIOLOGY MX-307, 12000 rpm, 5 minutes) to extract the administered compound contained in the brain. Similarly, the plasma was subjected to addition of acetonitrile and centrifugal separation to extract the administered test compound contained in the plasma. Each extracted sample was subjected to measurement of the concentration of administered test compound using LC/MS/MS (SHIMADZU UFLC/MS/MS (8050)).

[3] = in vivo; cited from earlier work
[4] = Test 1, 1 mg/kg single oral dose

Compound | Brain level at the time of brain Cmax [2, 4] [pmol/g] | Average value (mean) of the ratio (the number of MBP-positive cells/the number of Hoechst33342-positive cells) ([1]; Test 1) | also measured
C[C@H](CN1CC[C@H](C(F)F)C1)[C@H]1CC[C@H]2/C(=C/C=C3C[C@@H](O)C[C@H](O)C3)CCC[C@]12C [Compound (A), (1R,3R)-5-(2-((1R,3aS,7aR,E)-1-((S)-1-((S)-3-(difluoromethyl)pyrrolidin-1-yl)propan-2-yl)-7a-methyloctahydro-4H-inden-4-ylidene)ethylidene)cyclohexane-1,3-diol] | 529 ± 53 | 0.47 | –
C[C@H](CN1CC[C@@H](CC(F)F)C1)[C@H]1CC[C@H]2/C(=C/C=C3C[C@@H](O)C[C@H](O)C3)CCC[C@]12C [Compound (D), (1R,3R)-5-(2-((1R,3aS,7aR,E)-1-((S)-1-((S)-3-(2,2-difluoroethyl)pyrrolidin-1-yl)propan-2-yl)-7a-methyloctahydro-4H-inden-4-ylidene)ethylidene)cyclohexane-1,3-diol] | 80 ± 9 | – | Average value (mean) of the ratio (the number of MBP-positive cells/the number of Hoechst33342-positive cells) ([1]; Test 2): 0.53
C[C@H](CN1CC[C@@H](C(C)(F)F)C1)[C@H]1CC[C@H]2/C(=C/C=C3C[C@@H](O)C[C@H](O)C3)CCC[C@]12C [Compound (C), (1R,3R)-5-(2-((1R,3aS,7aR,E)-1-((S)-1-((R)-3-(1,1-difluoroethyl)pyrrolidin-1-yl)propan-2-yl)-7a-methyloctahydro-4H-inden-4-ylidene)ethylidene)cyclohexane-1,3-diol] | 562 ± 50 | 0.57 | –
C[C@H](CN1CCOCC1(C)C)[C@H]1CC[C@H]2/C(=C/C=C3C[C@@H](O)C[C@H](O)C3)CCC[C@]12C [Compound (F), (1R,3R)-5-(2-((1R,3aS,7aR,E)-1-((S)-1-(3,3-dimethylmorpholino)propan-2-yl)-7a-methyloctahydro-4H-inden-4-ylidene)ethylidene)cyclohexane-1,3-diol] | – | – | Average value (mean) of the ratio (the number of MBP-positive cells/the number of Hoechst33342-positive cells) ([1]; Test 3): 0.50; Brain level at the time of brain Cmax ([2]; Test 2, 0.2 mg/kg single oral dose): 137.8 ± 11.5 pmol/g
C=C1/C(=C\C=C2/CCC[C@]3(C)[C@@H]([C@H](C)CCCC(C)(C)O)CC[C@@H]23)C[C@@H](O)C[C@@H]1O [1α,25-dihydroxyvitamin D3] | – | – | ratio of concentration in brain/concentration in blood [3]: 0.007±0.003

Further lines, with some results ahead:

Brain level at the time of brain Cmax [2, 4] [pmol/g] | Compound | Average value (mean) of the ratio (the number of MBP-positive cells/the number of Hoechst33342-positive cells) ([1]; Test 1) | also measured
384 ± 40 | C[C@H](CN1CC[C@@H](C(F)F)C1)[C@H]1CC[C@H]2/C(=C/C=C3C[C@@H](O)C[C@H](O)C3)CCC[C@]12C [Compound (B), (1R,3R)-5-(2-((1R,3aS,7aR,E)-1-((S)-1-((R)-3-(difluoromethyl)pyrrolidin-1-yl)propan-2-yl)-7a-methyloctahydro-4H-inden-4-ylidene)ethylidene)cyclohexane-1,3-diol] | 0.38 | –
595 ± 23 | C[C@H](CCN1CCOCC1)[C@H]1CC[C@H]2/C(=C/C=C3C[C@@H](O)C[C@H](O)C3)CCC[C@]12C [Compound (E), (1R,3R)-5-(2-((1R,3aS,7aR,E)-7a-methyl-1-((R)-4-morpholinobutane-2-yl)octahydro-4H-inden-4-ylidene)ethylidene)cyclohexane-1,3-diol] | – | Average value (mean) of the ratio (the number of MBP-positive cells/the number of Hoechst33342-positive cells) ([1]; Test 2): 0.36
